# Test results: patent US20180338980A1, “AROMATIC SULFONAMIDE DERIVATIVES” (BAYER PHARMA AKTIENGESELLSCHAFT, priority 2015, published 2018)
# Molecular target: T1, P2X4 (Homo sapiens, UniProt Q99571)
# T1 sequence (Q99571 1-388): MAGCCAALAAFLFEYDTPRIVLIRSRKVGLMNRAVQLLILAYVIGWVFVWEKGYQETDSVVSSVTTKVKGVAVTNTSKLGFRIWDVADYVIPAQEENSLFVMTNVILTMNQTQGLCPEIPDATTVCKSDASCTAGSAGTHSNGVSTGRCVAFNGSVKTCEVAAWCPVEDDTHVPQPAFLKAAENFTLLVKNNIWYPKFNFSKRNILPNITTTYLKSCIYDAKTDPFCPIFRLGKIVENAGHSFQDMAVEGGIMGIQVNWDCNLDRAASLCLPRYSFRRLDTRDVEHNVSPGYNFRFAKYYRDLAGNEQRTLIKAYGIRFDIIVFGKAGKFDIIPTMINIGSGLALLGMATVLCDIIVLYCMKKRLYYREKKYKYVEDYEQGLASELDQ
# Experiment: Assay B: human P2X4 receptor cell line, mitochondrial photina luminescence (agonist Bz-ATP at EC50)
# Assay type: cell-based
# Parameters: host or cells: HEK 293 (recombinant, constitutively expressing; with mitochondrial photina in Assay B)
# Details: HEK human P2X4 cell line, photina luminescence, agonist Bz-ATP at EC50, average; for Emax: read-out: human P2X4 Assay B avg Efficacy
# Procedure: The identification of agonists and antagonists of the P2X4 receptor from humans and […] also the quantification of the activity of the compounds of the invention was performed by use of recombinant cell lines. […] The test cell lines constitutively express the mouse or human P2X4 receptors. Stimulation of the receptors with an agonist leads to a conformational change of P2X4 and influx of extracellular calcium ions through the ion channel. The cytoplasmatic calcium transient is detected via the calcium sensitive dye Fluo8 for the mouse P2×4 cell line or in case of the human P2×4 cell line a stably expressed calcium-sensitive photoprotein, mitochondrial photina, which, after reconstitution with the cofactor coelenterazine, emits light in dependence of calcium binding [Bovolenta S, Foti M, Lohmer S, Corazza S., J Biomol Screen. […] The strength of Fluo8 fluorescence signal or photina luminescence signal corresponds to the level of receptor activation. An inhibitor would decrease the signal depending on its potency and concentration.
# The resulting light signal is measured immediately in the luminometer.
IC50 [nM],Emax [%],SMILES
1060,79,"Cc1ccc(CC(=O)Nc2ccc(Oc3cccc(Cl)c3)c(S(N)(=O)=O)c2)nc1 [Example 193, N-[4-(3-Chlorophenoxy)-3-sulfamoylphenyl]-2-(5-methylpyridin-2-yl)acetamide]"
406,85,"NS(=O)(=O)c1cc(NC(=O)Cc2cccc(OCCO)c2)ccc1Oc1cccc(Cl)c1 [Example 212, N-[4-(3-Chlorophenoxy)-3-sulfamoylphenyl]-2-[3-(2-hydroxyethoxy)phenyl]acetamide]"
1270,69,"CS(=O)(=O)c1ccc(COc2ccc(NC(=O)Cc3ccccc3Cl)cc2S(N)(=O)=O)cc1 [Example 147, 2-(2-Chlorophenyl)-N-(4-{[4-(methylsulfonyl)benzyl]oxy}-3-sulfamoylphenyl)acetamide]"
524,42,"NS(=O)(=O)c1cc(NC(=O)C(F)(F)c2ccccc2)ccc1Oc1cccc(Cl)c1 [Example 106, N-[4-(3-Chlorophenoxy)-3-sulfamoylphenyl]-2,2-difluoro-2-phenylacetamide]"
> 50000,35,"NS(=O)(=O)c1cc(NC(=O)Cc2ccc3c(c2)OCCO3)ccc1Oc1ccc(Cl)cc1 [Example 276, N-[4-(4-Chlorophenoxy)-3-sulfamoylphenyl]-2-(2,3-dihydro-1,4-benzodioxin-6-yl)acetamide]"
6460,93,"NS(=O)(=O)c1cc(NC(=O)Cc2ccccc2)ccc1Oc1ccc(OC(F)(F)F)cc1 [Example 252, 2-Phenyl-N-{3-sulfamoyl-4-[4-(trifluoromethoxy)phenoxy]phenyl}acetamide]"
609,52,"NS(=O)(=O)c1cc(NC(=O)Cc2ccccc2)ccc1Oc1ccccc1OC(F)(F)F [Example 074, 2-Phenyl-N-{3-sulfamoyl-4-[2-(trifluoromethoxy)phenoxy]phenyl}acetamide]"
2720,70,"N#Cc1cc(Cl)c(CC(=O)Nc2ccc(Oc3ccc(Cl)cc3)c(S(N)(=O)=O)c2)cc1Cl [Example 243, N-[4-(4-Chlorophenoxy)-3-sulfamoylphenyl]-2-(2,5-dichloro-4-cyanophenyl)acetamide]"
1510,68,"NS(=O)(=O)c1cc(NC(=O)Cc2ccccc2)ccc1OC1COC1 [Example 215, N-[4-(Oxetan-3-yloxy)-3-sulfamoylphenyl]-2-phenylacetamide]"
776,99,"NS(=O)(=O)c1cc(NC(=O)Cc2ccccc2Cl)ccc1Oc1cccc(N2CCN(C(=O)Cc3ccccc3Cl)CC2)c1 [Example 027, 2-(2-Chlorophenyl)-N-[4-(3-{4-[(2-chlorophenyl)acetyl]piperazin-1-yl}phenoxy)-3-sulfamoylphenyl]acetamide]"
3570,60,"NS(=O)(=O)c1cc(NC(=O)Cc2ccccc2Cl)ccc1Oc1cc(Cl)cnc1Cl [Example 035, 2-(2-Chlorophenyl)-N-{4-[(2,5-dichloropyridin-3-yl)oxy]-3-sulfamoylphenyl}acetamide]"
544,73,"NS(=O)(=O)c1cc(NC(=O)Cc2ccccc2)ccc1Oc1cccc(F)c1 [Example 249, N-[4-(3-Fluorophenoxy)-3-sulfamoylphenyl]-2-phenylacetamide]"
1050,66,"NS(=O)(=O)c1cc(NC(=O)Cc2c(C(F)(F)F)ccc(Cl)c2Cl)ccc1Oc1cccc(Cl)c1 [Example 127, N-[4-(3-chlorophenoxy)-3-sulfamoylphenyl]-2-[2,3-dichloro-6-(trifluoromethyl)phenyl]acetamide]"

# Second part, the compound before the results:
SMILES,IC50 [nM],Emax [%]
"NS(=O)(=O)c1cc(NC(=O)Cc2ccc(C(F)(F)F)cc2)ccc1Oc1ccccc1Cl [Example 073, N-[4-(2-Chlorophenoxy)-3-sulfamoylphenyl]-2-[4-(trifluoromethyl)phenyl]acetamide]",3370,65
"NS(=O)(=O)c1cc(NC(=O)Cc2ccccc2Cl)ccc1Oc1ccc(N2CCOCC2)cc1 [Example 044, 2-(2-Chlorophenyl)-N-{4-[4-(morpholin-4-yl)phenoxy]-3-sulfamoylphenyl}acetamide]",2630,69
"COCCNC(=O)c1cccc(CC(=O)Nc2ccc(Oc3cccc(Cl)c3)c(S(N)(=O)=O)c2)c1 [Example 201, 3-(2-{[4-(3-Chlorophenoxy)-3-sulfamoylphenyl]amino}-2-oxoethyl)-N-(2-methoxyethyl)benzamide]",3300,73
"Cc1cc(Cl)c(CC(=O)Nc2ccc(Oc3cccc(Cl)c3)c(S(N)(=O)=O)c2)c(Cl)c1 [Example 126, N-[4-(3-Chlorophenoxy)-3-sulfamoylphenyl]-2-(2,6-dichloro-4-methylphenyl)acetamide]",467,81
"Cc1ccncc1CC(=O)Nc1ccc(Oc2cccc(Cl)c2)c(S(N)(=O)=O)c1 [Example 092, N-[4-(3-Chlorophenoxy)-3-sulfamoylphenyl]-2-(4-methylpyridin-3-yl)acetamide]",3440,57
"NS(=O)(=O)c1cc(NC(=O)Cc2ccccc2Cl)ccc1Oc1cnc(C(F)(F)F)nc1 [Example 056, 2-(2-Chlorophenyl)-N-(3-sulfamoyl-4-{[2-(trifluoromethyl)pyrimidin-5-yl]oxy}phenyl)acetamide]",> 50000,15
"Cc1ccc(Cl)c(CC(=O)Nc2ccc(Oc3cccc(Cl)c3)c(S(N)(=O)=O)c2)c1F [Example 121, 2-(6-Chloro-2-fluoro-3-methylphenyl)-N-[4-(3-chlorophenoxy)-3-sulfamoylphenyl]acetamide]",218,62
"NS(=O)(=O)c1cc(NC(=O)Cc2ccccc2OC(F)(F)F)ccc1Oc1cccc(Cl)c1 [Example 105, N-[4-(3-Chlorophenoxy)-3-sulfamoylphenyl]-2-[2-(trifluoromethoxy)phenyl]acetamide]",203,75
"NS(=O)(=O)c1cc(NC(=O)Cc2cc(Cl)ccc2Cl)ccc1Oc1cccc(Cl)c1 [Example 114, N-[4-(3-Chlorophenoxy)-3-sulfamoylphenyl]-2-(2,5-dichlorophenyl)acetamide]",305,64
"NS(=O)(=O)c1cc(NC(=O)Cc2ccccc2Cl)ccc1OCC1COC1 [Example 159, 2-(2-Chlorophenyl)-N-[4-(oxetan-3-ylmethoxy)-3-sulfamoylphenyl]acetamide]",1180,91
"NS(=O)(=O)c1cc(NC(=O)Cc2ccccc2F)ccc1Oc1ccc(Cl)cc1 [Example 230, N-[4-(4-Chlorophenoxy)-3-sulfamoylphenyl]-2-(2-fluorophenyl)acetamide]",–,50
"NS(=O)(=O)c1cc(NC(=O)Cc2ccccc2)ccc1OC1CCCC1 [Example 217, N-[4-(Cyclopentyloxy)-3-sulfamoylphenyl]-2-phenylacetamide]",4030,67
"NS(=O)(=O)c1cc(NC(=O)Cc2ccccc2Cl)ccc1OC1CCC1 [Example 205, 2-(2-Chlorophenyl)-N-[4-(cyclobutyloxy)-3-sulfamoylphenyl]acetamide]",396,74
"NS(=O)(=O)c1cc(NC(=O)Cc2ccccc2)ccc1OC1CCCCC1 [Example 199, N-[4-(Cyclohexyloxy)-3-sulfamoylphenyl]-2-phenylacetamide]",1960,70
"NS(=O)(=O)c1cc(NC(=O)Cc2ccccc2OCCO)ccc1Oc1cccc(Cl)c1 [Example 213, N-[4-(3-Chlorophenoxy)-3-sulfamoylphenyl]-2-[2-(2-hydroxyethoxy)phenyl]acetamide]",818,61
"NS(=O)(=O)c1cc(NC(=O)Cc2ccccc2Cl)ccc1Oc1cccc(Cl)n1 [Example 040, 2-(2-Chlorophenyl)-N-{4-[(6-chloropyridin-2-yl)oxy]-3-sulfamoylphenyl}acetamide]",238,64
"N#Cc1cc(C#N)cc(Oc2ccc(NC(=O)Cc3ccccc3Cl)cc2S(N)(=O)=O)c1 [Example 033, 2-(2-Chlorophenyl)-N-[4-(3,5-dicyanophenoxy)-3-sulfamoylphenyl]acetamide]",6750,75
"NS(=O)(=O)c1cc(NC(=O)Cc2ccc(Cl)cc2)ccc1Oc1ccc(Cl)cc1 [Example 228, N-[4-(4-Chlorophenoxy)-3-sulfamoylphenyl]-2-(4-chlorophenyl)acetamide]",1590,58
"COCCOc1ccccc1CC(=O)Nc1ccc(Oc2cccc(Cl)c2)c(S(N)(=O)=O)c1 [Example 211, N-[4-(3-Chlorophenoxy)-3-sulfamoylphenyl]-2-[2-(2-methoxyethoxy)phenyl]acetamide]",404,102
